Assay results as given in patent US10045983B2, “Heteroaryl pyridone and aza-pyrodine compounds” (Genentech, Inc., priority 2011, dated 2018).
Like-named read-outs stand apart in the source and are kept apart here.

Test: CD69 Whole Blood Assay (CD69 Hu Blood FACS)
Assay type: cell-based, human
Settings: Lymphocyte, human whole blood, anti-IgM activated B lymphocytes, FACS, IC70
Procedure, shortened: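 Human whole blood stimulated by crosslinking surface IgM with goat F(ab′)2 anti-human IgM; inhibition of CD69 expression on B lymphocytes measured by flow cytometry.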

[1] = Table 2 (unit inferred), read-out: CD69 Hu Blood FACS (IC70)
[2] = Table 1, read-out: CD69 Hu Blood FACS IC70

Cn1cc(-c2ccnc(N3CCn4c(cc5c4CC(C)(C)C5)C3=O)c2CO)cc(Nc2ccc(C(F)(F)F)cn2)c1=O [Example 279, 3-[3-(hydroxymethyl)-4-[1-methyl-6-oxo-5-[[5-(trifluoromethyl)-2-pyridyl]amino]-3-pyridyl]-2-pyridyl]-7,7-dimethyl-1,2,6,8-tetrahydrocyclopenta[3,4]pyrrolo[3,5-b]pyrazin-4-one]
IC70 [1]: 2100 nM

COCCN1CCn2nc(Nc3cc(-c4ccnc(N5CCc6c(sc7c6CC(C)(C)C7)C5=O)c4CO)cn(C)c3=O)cc2C1 [Example 308, 3-[3-(hydroxymethyl)-4-[5-[[5-(2-methoxyethyl)-6,7-dihydro-4H-pyrazolo[1,5-a]pyrazin-2-yl]amino]-1-methyl-6-oxo-3-pyridyl]-2-pyridyl]-7,7-dimethyl-1,2,6,8-tetrahydrocyclopenta[3,4]thieno[1,3-c]pyridin-4-one]
IC70 [1]: 54.6 nM

C[C@H]1CN(C2COC2)CCN1c1ccc(Nc2cc(-c3ccnc(N4CCn5c(cc6c5CCCC6)C4=O)c3C3(O)COC3)cn(C)c2=O)nc1 [Example 148, (S)-2-(3-(3-Hydroxyoxetan-3-yl)-4-(1-methyl-5-(5-(2-methyl-4-(oxetan-3-yl)piperazin-1-yl)pyridin-2-ylamino)-6-oxo-1,6-dihydropyridin-3-yl)pyridin-2-yl)-3,4,6,7,8,9-hexahydropyrazino[1,2-a]indol-1(2H)-one]
IC70 [2]: 5000 nM

COCc1cc(Nc2cc(-c3ccnc(N4CCc5c(cc6n5CCCC6)C4=O)c3CO)cn(C)c2=O)nn1C [Example 336, 2-[3-(hydroxymethyl)-4-[5-[[5-(methoxymethyl)-1-methyl-pyrazol-3-yl]amino]-1-methyl-6-oxo-3-pyridyl]-2-pyridyl]-3,4,6,7,8,9-hexahydropyrido[3,4-b]indolizin-1-one]
IC70 [1]: 330 nM

Cc1cc(Nc2cc(-c3ccnc(N4CCn5c(cc6c5CC(C)(C)C6)C4=O)c3CO)cn(C)c2=O)nc(C)n1 [Example 173, 2-[5-(2,6-Dimethyl-pyrimidin-4-ylamino)-3′-hydroxymethyl-1-methyl-6-oxo-1,6-dihydro-[3,4′]bipyridinyl-2′-yl]-7,7-dimethyl-3,4,7,8-tetrahydro-2H,6H-cyclopenta[4,5]pyrrolo[1,2-a]pyrazin-1-one]
IC70 [2]: 1000 nM

Cn1cc(-c2ccnc(N3CCn4c(cc5c4CC(C)(C)C5)C3=O)c2CO)cc(Nc2cc(-c3ccccc3)on2)c1=O [Example 299, 3-[3-(hydroxymethyl)-4-[1-methyl-6-oxo-5-[(5-phenylisoxazol-3-yl)amino]-3-pyridyl]-2-pyridyl]-7,7-dimethyl-1,2,6,8-tetrahydrocyclopenta[3,4]pyrrolo[3,5-b]pyrazin-4-one]
IC70 [1]: 2100 nM

CC(=O)N1CCn2nc(Nc3cc(-c4ccnc(N5CCn6c7c(c(F)c6C5=O)CCCC7)c4CO)cn(C)c3=O)cc2C1 [Example 255, 2-[4-[5-[(5-acetyl-6,7-dihydro-4H-pyrazolo[1,5-a]pyrazin-2-yl)amino]-1-methyl-6-oxo-3-pyridyl]-3-(hydroxymethyl)-2-pyridyl]-10-fluoro-3,4,6,7,8,9-hexahydropyrazino[1,2-a]indol-1-one]
IC70 [1]: 94 nM

Cn1cc(-c2ccnc(N3CCn4c(cc5c4CCCC5)C3=O)c2CO)cc(Nc2ccc3[nH]cnc3n2)c1=O [Example 217, 2-[3-(hydroxymethyl)-4-[5-(1H-imidazo[4,5-b]pyridin-5-ylamino)-1-methyl-6-oxo-3-pyridyl]-2-pyridyl]-3,4,6,7,8,9-hexahydropyrazino[1,2-a]indol-1-one]
IC70 [1]: 2900 nM

CN1Cc2cc(Nc3cc(-c4ccnc(N5CCn6c(cc7c6CC(C)(C)C7)C5=O)c4CO)cn(C)c3=O)nn2CC1=O [Example 313, 3-[3-(hydroxymethyl)-4-[1-methyl-5-[(5-methyl-6-oxo-4,7-dihydropyrazolo[1,5-a]pyrazin-2-yl)amino]-6-oxo-3-pyridyl]-2-pyridyl]-7,7-dimethyl-1,2,6,8-tetrahydrocyclopenta[3,4]pyrrolo[3,5-b]pyrazin-4-one]
IC70 [1]: 19.1 nM

Cn1cc(-c2ccnc(N3CCn4c(cc5c4CC(C)(C)C5)C3=O)c2CO)cc(Nc2ccncn2)c1=O [Example 144, 2-[3′-Hydroxymethyl-1-methyl-6-oxo-5-(pyrimidin-4-ylamino)-1,6-dihydro-[3,4′]bipyridinyl-2′-yl]-7,7-dimethyl-3,4,7,8-tetrahydro-2H,6H-cyclopenta-[4,5]pyrrolo[1,2-a]pyrazin-1-one]
IC70 [2]: 106 nM

Cn1cc(-c2ccnc(N3CCn4c(cc5c4CCCC5)C3=O)c2CO)cc(Nc2cc3n(n2)CCN(C2CC2)C3)c1=O [Example 128, 2-(4-(5-(5-Cyclopropyl-4,5,6,7-tetrahydropyrazolo[1,5-a]pyrazin-2-ylamino)-1-methyl-6-oxo-1,6-dihydropyridin-3-yl)-3-(hydroxymethyl)pyridin-2-yl)-3,4,6,7,8,9-hexahydropyrazino[1,2-a]indol-1(2H)-one]
IC70 [2]: 91.8 nM

Cn1ccc(Nc2cc(-c3ccnc(N4CCn5c(cc6c5CC(C)(C)C6)C4=O)c3CO)cn(C)c2=O)n1 [Example 290, 3-[3-(hydroxymethyl)-4-[1-methyl-5-[(1-methylpyrazol-3-yl)amino]-6-oxo-3-pyridyl]-2-pyridyl]-7,7-dimethyl-1,2,6,8-tetrahydrocyclopenta[3,4]pyrrolo[3,5-b]pyrazin-4-one]
IC70 [1]: 113 nM

Cn1cc(-c2ccnc(N3CCn4c(cc5c4CC(C)(C)C5)C3=O)c2CO)cc(Nc2cc3n(n2)CCN(CCC#N)C3)c1=O [Example 338, 3-[2-[[5-[2-(7,7-dimethyl-4-oxo-1,2,6,8-tetrahydrocyclopenta[3,4]pyrrolo[3,5-b]pyrazin-3-yl)-3-(hydroxymethyl)-4-pyridyl]-1-methyl-2-oxo-3-pyridyl]amino]-6,7-dihydro-4H-pyrazolo[155-a]pyrazin-5-yl]propanenitrile]
IC70 [1]: 17.8 nM

Cc1nccc(Nc2cc(-c3ccnc(N4CCn5c(cc6c5CC(C)(C)C6)C4=O)c3CO)nn(C)c2=O)n1 [Example 225, 3-[3-(hydroxymethyl)-4-[1-methyl-5-[(2-methylpyrimidin-4-yl)amino]-6-oxo-pyridazin-3-yl]-2-pyridyl]-7,7-dimethyl-1,2,6,8-tetrahydrocyclopenta[3,4]pyrrolo[3,5-b]pyrazin-4-one]
IC70 [1]: 766 nM

Cc1cnc(Nc2cc(-c3ccnc(N4CCn5c(cc6c5CC(C)(C)C6)C4=O)c3CO)cn(C)c2=O)cn1 [Example 274, 3-[3-(hydroxymethyl)-4-[1-methyl-5-[(5-methylpyrazin-2-yl)amino]-6-oxo-3-pyridyl]-2-pyridyl]-7,7-dimethyl-1,2,6,8-tetrahydrocyclopenta[3,4]pyrrolo[3,5-b]pyrazin-4-one]
IC70 [1]: 466 nM

CC[C@H]1CN(C2COC2)CCN1c1ccc(Nc2cc(-c3ccnc(N4CCn5c(cc6c5CCCC6)C4=O)c3CO)cn(C)c2=O)nc1 [Example 131, (S)-2-(4-(5-(5-(2-ethyl-4-(oxetan-3-yl)piperazin-1-yl)pyridin-2-ylamino)-1-methyl-6-oxo-1,6-dihydropyridin-3-yl)-3-(hydroxymethyl)pyridin-2-yl)-3,4,6,7,8,9-hexahydropyrazino[1,2-a]indol-1(2H)-one]
IC70 [2]: 15.5 nM

C[C@H]1CN(C2COC2)CCN1c1ccc(Nc2cc(-c3ccnc(N4CCn5c(cc6c5CCCC6)C4=O)c3CO)cn(C)c2=O)nc1 [Example 119, (S)-2-(3-(Hydroxymethyl)-4-(1-methyl-5-(5-(2-methyl-4-(oxetan-3-yl)piperazin-1-yl)pyridin-2-ylamino)-6-oxo-1,6-dihydropyridin-3-yl)pyridin-2-yl)-3,4,6,7,8,9-hexahydropyrazino[1,2-a]indol-1(2H)-one]
IC70 [2]: 35.6 nM

CN1CCc2nc(Nc3cc(-c4ccnc(N5CCn6c(cc7c6CC(C)(C)C7)C5=O)c4CO)cn(C)c3=O)sc2C1 [Example 203, 3-[3-(hydroxymethyl)-4-[1-methyl-5-[(5-methyl-6,7-dihydro-4H-thiazolo[5,4-c]pyridin-2-yl)amino]-6-oxo-3-pyridyl]-2-pyridyl]-7,7-dimethyl-1,2,6,8-tetrahydrocyclopenta[3,4]pyrrolo[3,5-b]pyrazin-4-one]
IC70 [1]: 60.5 nM

Cc1cc(Nc2cc(-c3ccnc(N4CCn5c(cc6c5CC(C)(C)C6)C4=O)c3CO)cn(C)c2=O)no1 [Example 283, 3-[3-(hydroxymethyl)-4-[1-methyl-5-[(5-methylisoxazol-3-yl)amino]-6-oxo-3-pyridyl]-2-pyridyl]-7,7-dimethyl-1,2,6,8-tetrahydrocyclopenta[3,4]pyrrolo[3,5-b]pyrazin-4-one]
IC70 [1]: 143 nM

C[C@H]1CN(C2COC2)CCN1c1ccc(Nc2cc(-c3ccnc(N4CCn5c(cc6c5CC(C)(C)C6)C4=O)c3C(N)=O)cn(C)c2=O)nc1 [Example 210, 2-(7,7-dimethyl-4-oxo-1,2,6,8-tetrahydrocyclopenta[3,4]pyrrolo[3,5-b]pyrazin-3-yl)-4-[1-methyl-5-[[5-[(2S)-2-methyl-4-(oxetan-3-yl)piperazin-1-yl]-2-pyridyl]amino]-6-oxo-3-pyridyl]pyridine-3-carboxamide]
IC70 [1]: 914 nM

Cn1cc(-c2ccnc(N3CCn4c(cc5c4CC(C)(C)C5)C3=O)c2CO)cc(Nc2ccc(C(F)(F)F)nn2)c1=O [Example 301, 3-[3-(hydroxymethyl)-4-[1-methyl-6-oxo-5-[[6-(trifluoromethyl)pyridazin-3-yl]amino]-3-pyridyl]-2-pyridyl]-7,7-dimethyl-1,2,6,8-tetrahydrocyclopenta[3,4]pyrrolo[3,5-b]pyrazin-4-one]
IC70 [1]: 1300 nM

CN1CCc2nc(Nc3cc(-c4ccnc(N5CCn6c7c(c(F)c6C5=O)CCCC7)c4CO)cn(C)c3=O)sc2C1 [Example 223, 10-fluoro-2-[3-(hydroxymethyl)-4-[1-methyl-5-[(5-methyl-6,7-dihydro-4H-thiazolo[5,4-c]pyridin-2-yl)amino]-6-oxo-3-pyridyl]-2-pyridyl]-3,4,6,7,8,9-hexahydropyrazino[1,2-a]indol-1-one]
IC70 [1]: 430 nM

CN1CCn2nc(Nc3cc(-c4ccnc(-n5ncc6c7n(cc6c5=O)CCCC7)c4CO)cn(C)c3=O)cc2C1 [Example 202, 3-[3-(hydroxymethyl)-4-[1-methyl-5-[(5-methyl-6,7-dihydro-4H-pyrazolo[1,5-a]pyrazin-2-yl)amino]-6-oxo-3-pyridyl]-2-pyridyl]-7,8,9,10-tetrahydropyridazino[4,5-a]indolizin-4-one]
IC70 [1]: 7300 nM
